Measurements published in ChEMBL document CHEMBL4130359, “Indazole-based ligands for estrogen-related receptor α as potential anti-diabetic agents” (Eur J Med Chem, 2017).
Calls of active or inactive are those of the source. The rule behind the calls is not given here.

Columns and labels:
[1] = test system: Rattus norvegicus; assay: Toxicity in Zucker rat sub-chronic fa/fa prediabetic model assessed as liver weight at 10 mg/kg, po qd for 31 days measured on day 32 (reference value: 28 +/- 1.6 g); type: organism-based; details: in vivo, 744 h
[2] = test system: Rattus norvegicus; assay: Effect on IL1RN gene expression in epididymal white adipose tissue of Zucker rat sub-chronic fa/fa prediabetic model at 10 mg/kg, po qd for 15 days by microarray analysis relative to control; type: functional
[3] = AUC (0 to 24 hrs) in […] model at 10 mg/kg, po qd for 28 days measured on day 28 post last dose; type: ADME, organism-based; parameters: time < 24 hr, dose 10 mg/kg, route oral; details: in vivo
[4] = test system: Rattus norvegicus; assay: Effect on PIAS1 gene expression in epididymal white adipose tissue of Zucker rat sub-chronic fa/fa prediabetic model at 10 mg/kg, po qd for 15 days by microarray analysis relative to control; type: functional
[5] = test system: Rattus norvegicus; assay: Effect on CHUK gene expression in epididymal white adipose tissue of Zucker rat sub-chronic fa/fa prediabetic model at 10 mg/kg, po qd for 15 days by microarray analysis relative to control; type: functional
[6] = test system: Rattus norvegicus; assay: Effect on HLA-DMB gene expression in epididymal white adipose tissue of Zucker rat sub-chronic fa/fa prediabetic model at 10 mg/kg, po qd for 15 days by microarray analysis relative to control; type: functional
[7] = test system: Rattus norvegicus; assay: Toxicity in Zucker rat sub-chronic fa/fa prediabetic model assessed as serum cholesterol level at 50 mg/kg, po qd for 31 days measured on day 32 (reference value: 295 +/- 91 mg/dl); type: organism-based; details: in vivo, 744 h
[8] = test system: Rattus norvegicus; type: functional, Zucker
[9] = test system: Rattus norvegicus; assay: Effect on DLST gene expression in epididymal white adipose tissue of Zucker rat sub-chronic fa/fa prediabetic model at 10 mg/kg, po qd for 15 days by microarray analysis relative to control; type: functional
[10] = test system: Rattus norvegicus; assay: Effect on LPIN2 gene expression in epididymal white adipose tissue of Zucker rat sub-chronic fa/fa prediabetic model at 10 mg/kg, po qd for 15 days by microarray analysis relative to control; type: functional
[11] = test system: Rattus norvegicus; assay: Toxicity in […] chronic ob/ob model assessed as brown adipose tissue weight at 3 mg/kg, po qd for 31 days measured on day 32 (reference value: 0.59 +/- 0.05 g); type: organism-based; details: in vivo, 744 h
[12] = test system: Rattus norvegicus; assay: Effect on HMGCS2 gene expression in epididymal white adipose tissue of Zucker rat sub-chronic fa/fa prediabetic model at 10 mg/kg, po qd for 15 days by microarray analysis relative to control; type: functional
[13] = test system: Rattus norvegicus; assay: Antidiabetic activity in Zucker rat sub-chronic fa/fa prediabetic model assessed as increase in serum adiponectin level at 50 mg/kg, po qd for 4 days by ELISA relative to control; type: functional
[14] = biological target: Retinoic acid receptor RXR-alpha (Homo sapiens, UniProt P19793); assay: Agonist activity at recombinant GST-tagged human RXRalpha LBD assessed as fluorescein-labeled coactivator peptide recruitment preincubated with enzyme followed by coactivator addition by LanthaScreen TR-FRET assay
[15] = test system: Rattus norvegicus; assay: Effect on STAT3 gene expression in epididymal white adipose tissue of Zucker rat sub-chronic fa/fa prediabetic model at 10 mg/kg, po qd for 15 days by microarray analysis relative to control; type: functional
[16] = test system: Rattus norvegicus; assay: Toxicity in Zucker rat sub-chronic fa/fa prediabetic model assessed as epididymal white adipose tissue weight at 1 mg/kg, po qd for 31 days measured on day 32 (reference value: 13.9 +/- 0.6 g); type: organism-based; details: in vivo, 744 h
[17] = test system: Rattus norvegicus; assay: Antidiabetic activity in Zucker rat sub-chronic fa/fa prediabetic model assessed as fasting blood insulin level at 1 mg/kg, po qd for 31 days measured on day 29 post dose (reference value: 8.5 +/- 1.4 ug/L); type: functional
[18] = test system: Rattus norvegicus; assay: Toxicity in Zucker rat sub-chronic fa/fa prediabetic model assessed as serum BUN level at 3 mg/kg, po qd for 31 days measured on day 32 (reference value: 28.3 +/- […]); type: organism-based; details: in vivo, 744 h
[19] = test system: Rattus norvegicus; assay: Toxicity in Zucker rat sub-chronic fa/fa prediabetic model assessed as serum triglyceride level at 1 mg/kg, po qd for 31 days measured on day 32 (reference value: 1382 +/- 268 mg/dl); type: organism-based; details: in vivo, 744 h
[20] = test system: Rattus norvegicus; assay: Effect on YWHAG gene expression in epididymal white adipose tissue of Zucker rat sub-chronic fa/fa prediabetic model at 10 mg/kg, po qd for 15 days by microarray analysis relative to control; type: functional
[21] = test system: Rattus norvegicus; assay: Toxicity in Zucker rat sub-chronic fa/fa prediabetic model assessed as food intake at 10 mg/kg, po qd for 29 days measured on day 1 to 29 during compound dosing (reference value: 969 +/- 18 g); type: organism-based; details: in vivo, 696 h
[22] = test system: Rattus norvegicus; assay: Increase in ACADM mRNA expression in epididymal white adipose tissue of Zucker rat sub-chronic fa/fa prediabetic model at 10 mg/kg, po qd for 15 days by RT-PCR method; type: functional, organism-based
[23] = test system: Rattus norvegicus; assay: Toxicity in […] model assessed as serum AST level at 10 mg/kg, po qd for 31 days measured on day 32 (reference value: 180 +/- 26 U/L); type: organism-based; details: in vivo, 744 h
[24] = test system: Rattus norvegicus; assay: Effect on HSD17B4 gene expression in epididymal white adipose tissue of Zucker rat sub-chronic fa/fa prediabetic model at 10 mg/kg, po qd for 15 days by microarray analysis relative to control; type: functional
[25] = test system: Rattus norvegicus; assay: Toxicity in Zucker rat sub-chronic fa/fa prediabetic model assessed as liver weight at 3 mg/kg, po qd for 31 days measured on day 32 (reference value: 28 +/- 1.6 g); type: organism-based; details: in vivo, 744 h
[26] = test system: Rattus norvegicus; assay: Effect on ACSS1 gene expression in epididymal white adipose tissue of Zucker rat sub-chronic fa/fa prediabetic model at 10 mg/kg, po qd for 15 days by microarray analysis relative to control; type: functional
[27] = test system: Rattus norvegicus; assay: Effect on PRKD3 gene expression in epididymal white adipose tissue of Zucker rat sub-chronic fa/fa prediabetic model at 10 mg/kg, po qd for 15 days by microarray analysis relative to control; type: functional
[28] = Terminal half life in […] at 15 mg/kg administered via oral gavage by LC-MS analysis; type: ADME, organism-based; details: in vivo, read-out: beta t1/2 (converted)
[29] = test system: Rattus norvegicus; assay: Effect on GHR gene expression in epididymal white adipose tissue of Zucker rat sub-chronic fa/fa prediabetic model at 10 mg/kg, po qd for 15 days by microarray analysis relative to control; type: functional
[30] = test system: Rattus norvegicus; assay: Effect on NFKB1 gene expression in epididymal white adipose tissue of Zucker rat sub-chronic fa/fa prediabetic model at 10 mg/kg, po qd for 15 days by microarray analysis relative to control; type: functional
[31] = test system: Rattus norvegicus; assay: Toxicity in Zucker rat sub-chronic fa/fa prediabetic model assessed as change in body weight at 10 mg/kg, po qd for 29 days measured on day 1 to 29 during compound dosing (reference value: 140 +/- 7 g); type: organism-based; details: in vivo, 696 h
[32] = Clearance in Sprague-Dawley rat at 2 mg/kg, iv by LC-MS analysis; type: ADME, organism-based; details: in vivo
[33] = test system: Rattus norvegicus; assay: Effect on ECI2 gene expression in epididymal white adipose tissue of Zucker rat sub-chronic fa/fa prediabetic model at 10 mg/kg, po qd for 15 days by microarray analysis relative to control; type: functional

Chain of Retinoic acid receptor RXR-alpha (P19793 whole entry, the tested form may be a part): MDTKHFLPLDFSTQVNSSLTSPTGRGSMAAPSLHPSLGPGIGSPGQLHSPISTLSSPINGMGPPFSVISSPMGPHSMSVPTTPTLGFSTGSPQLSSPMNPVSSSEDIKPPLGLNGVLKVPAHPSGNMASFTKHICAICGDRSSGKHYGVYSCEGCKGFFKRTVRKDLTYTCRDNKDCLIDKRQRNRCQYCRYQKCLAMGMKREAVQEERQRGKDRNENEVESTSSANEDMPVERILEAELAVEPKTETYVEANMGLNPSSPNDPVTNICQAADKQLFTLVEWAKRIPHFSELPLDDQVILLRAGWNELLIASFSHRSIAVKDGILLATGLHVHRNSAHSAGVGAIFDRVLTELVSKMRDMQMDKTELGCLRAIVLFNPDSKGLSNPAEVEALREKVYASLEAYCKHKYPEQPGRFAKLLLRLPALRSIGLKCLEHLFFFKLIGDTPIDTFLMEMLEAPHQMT

Q: With CN1CC[C@@H](N2C(=O)S/C(=C\c3ccc4c(cnn4Cc4ccc(Cl)cc4C(F)(F)F)c3)C2=O)[C@H](F)C1 as the compound, how does the Activity [1] read?
A: 18.5 g

Q: What about the “fold change (FC)” value [2] of the same compound?
A: -1.209

Q: And the AUC at 24 h [3]?
A: 5910 ng·h/mL

Q: What about the “fold change (FC)” value [4] of the same compound?
A: -1.323

Q: What about the “fold change (FC)” value [5] of the same compound?
A: 1.379

Q: What about the “fold change (FC)” value [6] of the same compound?
A: -1.288

Q: What about the Activity [7] of the same compound?
A: 203 mg/dL

Q: And the Activity [8]?
A: 14.9%

Q: What about the “fold change (FC)” value [9] of the same compound?
A: 1.352

Q: And the “fold change (FC)” value [10]?
A: 1.548

Q: What about the Activity [11] of the same compound?
A: 0.61 g

Q: What about the “fold change (FC)” value [12] of the same compound?
A: -1.488

Q: What about the “fold change (FC)” value [13] of the same compound?
A: 1.9

Q: What about the EC50 [14] of the same compound?
A: > 10 µM

Q: What about the “fold change (FC)” value [15] of the same compound?
A: -1.405

Q: And the Activity [16]?
A: 16.9 g

Q: And the Activity [17]?
A: 5 µg/L

Q: What about the Activity [18] of the same compound?
A: 26.3 mg/dL

Q: And the Activity [19]?
A: 1040 mg/dL

Q: What about the “fold change (FC)” value [20] of the same compound?
A: 1.255

Q: And the Activity [21]?
A: 1060 g

Q: And the Activity [22]?
A: Active

Q: What about the Activity [23] of the same compound?
A: 171 U/L

Q: And the “fold change (FC)” value [24]?
A: 1.226

Q: And the Activity [25]?
A: 20.6 g

Q: What about the “fold change (FC)” value [26] of the same compound?
A: -1.893

Q: And the “fold change (FC)” value [27]?
A: -1.247

Q: And the half-life [28]?
A: 6.7 h

Q: And the “fold change (FC)” value [29]?
A: 1.276

Q: What about the “fold change (FC)” value [30] of the same compound?
A: -1.254

Q: And the Activity [31]?
A: 150 g

Q: And the clearance [32]?
A: 23 mL/min/kg

Q: What about the “fold change (FC)” value [33] of the same compound?
A: 1.453
